Measurements: patent US20240400555A1 (Initial Therapeutics, Inc., priority 2023, published 2024)

Tested on: HCT-116 Firefly-luciferase reporter cells
Assay: Cellular c-MYC Reporter Assay
Type: cell-based
Conditions: Homo sapiens; untitled table following Table 8a; HCT-116 Firefly-luciferase reporter cells, 24 h; read-out: pIC50 (converted)
Protocol: HCT-116 Firefly-luciferase reporter cells (BPS Bioscience) were seeded in 96-well tissue-culture treated sterile plates (Greiner Bio-One) at 5e4 cells/mL in 100 μL complete growth media (McCoy's 5A+10% FBS, +1% Pen-Strep, +1% G418). Cells were incubated at 37° C. with 5% CO2 for 4-6 h then treated with 3× compound solution in 50 μL complete growth media for a final volume of 150 μL per well with 0.2% DMSO. After 24 h incubation at 37° C. with 5% CO2, plates were allowed to equilibrate to RT for 20 min then developed by addition of 100 μL ONE-Glo Luciferase detection reagent (Promega), incubated at RT for 10 min. Luminescence was recorded using a SpectraMax i3x plate reader (Molecular Devices) and analyzed using Prism GraphPad 9 software.

First: Cc1cn(-c2ccc(C(=O)N(c3nccc4cccc(C)c34)[C@@H]3CCCNC3)c(F)c2)nn1 [Example 251, (R)-2-fluoro-4-(4-methyl-1H-1,2,3-triazol-1-yl)-N-(8-methylisoquinolin-1-yl)-N-(piperidin-3-yl)benzamide]
Second: Cc1cccc2ccnc(N(C(=O)c3ccc(-n4nnc(C(C)Cl)n4)cc3F)[C@@H]3CCCNC3)c12 (stereo partly drawn) [Example 298, 4-(5-(1-chloroethyl)-2H-tetrazol-2-yl)-2-fluoro-N-(8-methylisoquinolin-1-yl)-N—((R)-piperidin-3-yl) benzamide]
The IC50 of the first is 3.9-fold lower: 67.6 nM for the first, 263 nM for the second.

Going from `O=C(c1ccc(-n2nnc3cccnc32)cc1F)N(c1nccc2cccc(Cl)c12)[C@@H]1CCCNC1` [Example 246, (R)-4-(3H-[1,2,3]triazolo[4,5-b]pyridin-3-yl)-N-(8-chloroisoquinolin-1-yl)-2-fluoro-N-(piperidin-3-yl)benzamide] to `N#Cc1ccc2ccnc(N(C(=O)c3ccc(-n4nnc5cccnc54)cc3F)[C@@H]3CCCNC3)c2c1` [Example 156], the IC50 rises from 33.1 nM to 7080 nM (210-fold).

First: Cn1cc(-c2ccc3c(N(C(=O)c4ccc(-n5nnc6cccnc65)cc4F)[C@@H]4CCCNC4)nccc3c2)cn1 [Example 97, (R)-4-(3H-[1,2,3]triazolo[4,5-b]pyridin-3-yl)-2-fluoro-N-(6-(1-methyl-1H-pyrazol-4-yl)isoquinolin-1-yl)-N-(piperidin-3-yl)benzamide]
Second: O=C(c1ccc(-n2nnc3cccnc32)cc1F)N(c1nccc2ccc(-c3cncnc3)cc12)[C@@H]1CCCNC1 [Example 150, (R)-4-(3H-[1,2,3]triazolo[4,5-b]pyridin-3-yl)-2-fluoro-N-(piperidin-3-yl)-N-(7-(pyrimidin-5-yl)isoquinolin-1-yl)benzamide]
The IC50 of the first is 6-fold lower: 380 nM for the first, 2290 nM for the second.

Compared with `Cc1cccc2ccnc(N(C(=O)N3CCC(c4cccc(O)c4)CC3)[C@@H]3CCCNC3)c12` [Example 269, (R)-4-(3-hydroxyphenyl)-N-(8-methylisoquinolin-1-yl)-N-(piperidin-3-yl)piperidine-1-carboxamide], `Cc1cccc2ccnc(N(C(=O)N3CCCC(C)(c4ccccc4)C3)[C@@H]3CCCNC3)c12` (stereo partly drawn) [Example 267, 3-methyl-N-(8-methylisoquinolin-1-yl)-3-phenyl-N—((R)-piperidin-3-yl)piperidine-1-carboxamide] is 1.5-fold higher in IC50: 3550 nM for the first, 5370 nM for the second.

`O=C(c1ccc(-n2nnc3cccnc32)cc1F)N(c1ncccc1C#CCCO)[C@@H]1CCCNC1` [Example 105, 2-fluoro-N-[3-(4-hydroxybut-1-ynyl)-2-pyridyl]-N-[(3R)-3-piperidyl]-4-(triazolo[4,5-b]pyridin-3-yl)benzamide] and `O=C(c1ccc(-n2nnc3cccnc32)cc1F)N(c1ncccc1/C=C/CCO)[C@@H]1CCCNC1` [Example 104, 2-fluoro-N-[3-[(E)-4-hydroxybut-1-enyl]-2-pyridyl]-N-[(3R)-3-piperidyl]-4-(triazolo[4,5-b]pyridin-3-yl)benzamide] are within 1.5-fold of each other in IC50: 6310 nM for the first, 8910 nM for the second.

Compared with `Cc1cccc2ccnc(N(C(=O)c3ccc(-n4nnc5cccnc54)cc3)[C@H]3CNCC[C@@H]3C)c12` [Example 224, 4-(3H-[1,2,3]triazolo[4,5-b]pyridin-3-yl)-N-(8-methylisoquinolin-1-yl)-N-((3R,4S)-4-methylpiperidin-3-yl)benzamide], `Cc1cccc2ccnc(N(C(=O)c3ccc(-n4nccn4)cc3)[C@@H]3CCCNC3)c12` [Example 235, (R)—N-(8-methylisoquinolin-1-yl)-N-(piperidin-3-yl)-4-(2H-1,2,3-triazol-2-yl)benzamide] is lower in IC50: over 20000 nM for the first, 8510 nM for the second.

Compared with `Cn1ncc2ccnc(N(C(=O)c3ccc(Nc4ncccn4)cc3F)[C@@H]3CCCNC3)c21` [Example 119, (R)-2-fluoro-N-(1-methyl-1H-pyrazolo[3,4-c]pyridin-7-yl)-N-(piperidin-3-yl)-4-(pyrimidin-2-ylamino)benzamide], `Cc1cccc2ccnc(N(C(=O)c3ccc(Nc4nccs4)cc3F)[C@@H]3CCCNC3)c12` [Example 275, (R)-2-fluoro-N-(8-methylisoquinolin-1-yl)-N-(piperidin-3-yl)-4-(thiazol-2-ylamino)benzamide] is 2.8-fold higher in IC50: 1410 nM for the first, 3890 nM for the second.

Going from `CN(C)C(=O)c1cccnc1N(C(=O)c1ccc(-n2nnc3cccnc32)cc1F)[C@@H]1CCCNC1` [Example 247, (R)-2-(4-(3H-[1,2,3]triazolo[4,5-b]pyridin-3-yl)-2-fluoro-N-(piperidin-3-yl)benzamido)-N,N-dimethylnicotinamide] to `Cc1cn(C)c2c(N(C(=O)c3ccc(-n4nnc5cccnc54)cc3F)[C@@H]3CCCNC3)nccc12` [Example 255, (R)-4-(3H-[1,2,3]triazolo[4,5-b]pyridin-3-yl)-N-(1,3-dimethyl-1H-pyrrolo[2,3-c]pyridin-7-yl)-2-fluoro-N-(piperidin-3-yl)benzamide], the IC50 falls from 5010 nM to 100 nM (50-fold).

`O=C(c1ccc(-n2nnc3cccnc32)cc1F)N(c1nccc2ccc(-c3ccn[nH]3)cc12)[C@@H]1CCCNC1` [Example 152, (R)—N-(7-(1H-pyrazol-5-yl)isoquinolin-1-yl)-4-(3H-[1,2,3]triazolo[4,5-b]pyridin-3-yl)-2-fluoro-N-(piperidin-3-yl)benzamide] and `O=C(c1ccc(-n2nnc3cccnc32)cc1F)N(c1nccc2cc(CO)ccc12)[C@@H]1CCCNC1` [Example 146, (R)-4-(3H-[1,2,3]triazolo[4,5-b]pyridin-3-yl)-2-fluoro-N-(6-(hydroxymethyl)isoquinolin-1-yl)-N-(piperidin-3-yl)benzamide] are within 1.5-fold of each other in IC50: 468 nM for the first, 562 nM for the second.

Compared with `Cc1cccc2ccnc(N(C(=O)c3ccc(-n4nnc5ccc(C(=O)O)nc54)cc3F)[C@@H]3CCCNC3)c12` [Example 293, (R)-3-(3-fluoro-4-((8-methylisoquinolin-1-yl)(piperidin-3-yl)carbamoyl)phenyl)-3H-[1,2,3]triazolo[4,5-b]pyridine-5-carboxylic acid], `Cc1cccc2ccnc(N(C(=O)c3ccc(Oc4ncccn4)cc3F)[C@@H]3CCCNC3)c12` [Example 133, 2-fluoro-N-(8-methyl-1-isoquinolyl)-N-(3-piperidyl)-4-pyrimidin-2-yloxy-benzamide] is lower in IC50: over 20000 nM for the first, 269 nM for the second.

`Cc1cccc2ccnc(N(C(=O)c3ccc(N4CCOCC4)cc3)[C@@H]3CCCNC3)c12` [Example 219, (R)—N-(8-methylisoquinolin-1-yl)-4-morpholino-N-(piperidin-3-yl)benzamide] and `Cc1cccc2ccnc(N(C(=O)N3CC=C(c4ccccc4)CC3)[C@@H]3CCCNC3)c12` [Example 287, (R)—N-(8-methylisoquinolin-1-yl)-4-phenyl-N-(piperidin-3-yl)-3,6-dihydropyridine-1(2H)-carboxamide] are within 1.5-fold of each other in IC50: 6310 nM for the first, 5890 nM for the second.

Tested on: MV-4-11 cells
Assay: Cell Viability Assay in MV-4-11 Cells
Type: cell-based
Conditions: Homo sapiens, MV4-11, 72 h, MV-4-11 cells, 72 h, Cell-Titer Glo; read-out: IC50
Outline: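 MV-4-11 cells at 7,000/well in IMDM with 10% FBS, exposed to compound for 72 h. Viability by CellTiter-Glo luminescence, normalized to DMSO as 100%, fitted with a four-parameter curve.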

Compared with `Cc1cccc2ccnc(N(C(=O)N3CCC[C@@H](n4nc(-c5ccc(Oc6ccccc6)cc5)c5c(N)ncnc54)C3)[C@@H]3CCCNC3)c12` [Example 340, (R)-3-(4-amino-3-(4-phenoxyphenyl)-1H-pyrazolo[3,4-d]pyrimidin-1-yl)-N-(8-methylisoquinolin-1-yl)-N—((R)-piperidin-3-yl)piperidine-1-carboxamide], `COC(=O)[C@H]1CCCN1c1ccnc(Nc2ccc(C(=O)N(c3nccc4cccc(C)c34)[C@@H]3CCCNC3)c(F)c2)n1` [Example 965, methyl (2-((3-fluoro-4-((8-methylisoquinolin-1-yl)((R)-piperidin-3-yl)carbamoyl)phenyl)amino)pyrimidin-4-yl)-D-prolinate] is 6.6-fold lower in IC50: 860 nM for the first, 130 nM for the second.

Going from `Cc1nnc(-c2ccc(C(=O)N(c3nccc4cc(Cl)cc(C)c34)[C@@H]3CCCNC3)cc2F)s1` [Example 708, (R)—N-(6-chloro-8-methylisoquinolin-1-yl)-3-fluoro-4-(5-methyl-1,3,4-thiadiazol-2-yl)-N-(piperidin-3-yl)benzamide] to `Cc1cc(C)c2c(N(C(=O)c3ccc(-c4nnc(C)s4)cc3F)[C@@H]3CCCNC3)nccc2c1` [Example 641, (R)—N-(6,8-dimethylisoquinolin-1-yl)-2-fluoro-4-(5-methyl-1,3,4-thiadiazol-2-yl)-N-(piperidin-3-yl)benzamide], the IC50 falls from 160 nM to 56 nM (2.9-fold).

`C=C(C)c1csc2ccnc(N(C(=O)c3ccc(-c4nnc(C)s4)cc3F)[C@@H]3CCCNC3)c12` [Example 651, 2-fluoro-N-(3-isopropenylthieno[3,2-c]686yridine-4-yl)-4-(5-methyl-1,3,4-thiadiazol-2-yl)-N-[(3R)-3-piperidyl]benzamide] and `Cn1cc(-c2ccc(C(=O)N(c3nccc4sc(-c5ccccn5)cc34)[C@@H]3CCCNC3)c(F)c2)nn1` [Example 507, 2-fluoro-4-(1-methyltriazol-4-yl)-N-[(3R)-3-piperidyl]-N-[2-(2-pyridyl)thieno [3,2-c]pyridin-4-yl] benzamide] are within 1.5-fold of each other in IC50: 460 nM for the first, 610 nM for the second.

First: C#Cc1ccc2c(N(C(=O)c3ccc(-n4nnc5cccnc54)cc3F)[C@@H]3CCCNC3)nccc2c1 [Example 396, (R)-4-(3H-[1,2,3]triazolo[4,5-b]pyridin-3-yl)-N-(6-ethynylisoquinolin-1-yl)-2-fluoro-N-(piperidin-3-yl)benzamide]
Second: Cn1cc(-c2ccc(C(=O)N(c3nccc4sc(-c5ccc6[nH]c(=O)[nH]c6c5)cc34)[C@@H]3CCCNC3)c(F)c2)nn1 [Example 545]
The IC50 of the first is 35-fold lower: 150 nM for the first, 5300 nM for the second.

Compound `Cc1cccc2ccnc(N(C(=O)c3ccc(Nc4nccc(NCc5ccncc5)n4)cc3F)[C@@H]3CCCNC3)c12` [Example 697, (R)-2-fluoro-N-(8-methylisoquinolin-1-yl)-N-(piperidin-3-yl)-4-((4-((pyridin-4-ylmethyl)amino)pyrimidin-2-yl)amino)benzamide] has an IC50 of 200 nM.
